Reference: patent US20080108569A1, “Compositions and Methods for Treating Diseases Associated With Phlpp” (The Regents of the University of California, priority 2005, published 2008)

What was measured:
PHLPP-1α = molecular target: T1, PHLPP-1α (Homo sapiens, UniProt O60346); assay: okadaic acid sensitivity of PHLPP-1α mediated dephosphorylation of Akt at Ser473 in 293T cells; assay type: cell-based; settings: OA 1 μM for 15 minutes, 293T cells transfected with HA-PHLPP-1α
T1 construct: The full-length human PHLPP-1α cDNA was cloned by combining the following cDNA fragments; expressed in transfected cells; host or cells: 293T cells
T1 sequence (O60346 1-1205 isoform O60346-2): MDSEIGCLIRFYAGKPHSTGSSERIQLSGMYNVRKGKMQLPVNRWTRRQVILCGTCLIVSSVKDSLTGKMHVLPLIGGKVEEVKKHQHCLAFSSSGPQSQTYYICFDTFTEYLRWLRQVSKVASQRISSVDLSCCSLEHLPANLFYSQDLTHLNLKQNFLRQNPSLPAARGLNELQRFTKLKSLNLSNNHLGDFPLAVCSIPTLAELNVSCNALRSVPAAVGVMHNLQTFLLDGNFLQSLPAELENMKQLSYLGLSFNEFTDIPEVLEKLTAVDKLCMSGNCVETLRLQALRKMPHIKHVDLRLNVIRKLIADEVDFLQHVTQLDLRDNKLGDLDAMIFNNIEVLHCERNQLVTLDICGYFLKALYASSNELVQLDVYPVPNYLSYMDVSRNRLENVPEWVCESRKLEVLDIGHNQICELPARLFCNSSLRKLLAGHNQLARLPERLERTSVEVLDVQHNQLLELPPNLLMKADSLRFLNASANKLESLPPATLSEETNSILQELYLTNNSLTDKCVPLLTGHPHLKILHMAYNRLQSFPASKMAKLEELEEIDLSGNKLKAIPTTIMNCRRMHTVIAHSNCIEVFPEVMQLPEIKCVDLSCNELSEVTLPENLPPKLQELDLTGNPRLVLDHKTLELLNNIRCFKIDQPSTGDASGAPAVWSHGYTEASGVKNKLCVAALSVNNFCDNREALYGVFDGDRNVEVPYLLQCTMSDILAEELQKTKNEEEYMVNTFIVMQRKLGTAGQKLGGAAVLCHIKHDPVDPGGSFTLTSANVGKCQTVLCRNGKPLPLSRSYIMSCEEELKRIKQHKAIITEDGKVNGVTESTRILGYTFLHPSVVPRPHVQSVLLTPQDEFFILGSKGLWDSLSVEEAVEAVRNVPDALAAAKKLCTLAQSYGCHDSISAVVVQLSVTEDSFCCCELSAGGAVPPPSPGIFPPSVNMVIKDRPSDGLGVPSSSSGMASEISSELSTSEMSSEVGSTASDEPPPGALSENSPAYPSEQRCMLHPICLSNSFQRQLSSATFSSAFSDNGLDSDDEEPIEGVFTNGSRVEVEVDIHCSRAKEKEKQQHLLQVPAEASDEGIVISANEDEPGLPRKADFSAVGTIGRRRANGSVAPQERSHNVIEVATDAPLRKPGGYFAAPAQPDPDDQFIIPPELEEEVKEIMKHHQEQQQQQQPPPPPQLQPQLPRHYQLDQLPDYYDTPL
Protocol: FIG. 29. PHLPP-1α mediated-dephosphorylation of Akt at Ser473 is okadaic acid-insensitive. 293T cells transfected with HA-PHLPP-1α were serum starved overnight. The cells were then left untreated (lane 1), treated with insulin (100 nM) for 30 minutes (lane 2), treated with insulin for 30 minutes followed by okadaic acid (OA, 1 μM) for 15 minutes (lane 3), or treated with insulin for 30 minutes followed by OA for 15 minutes followed by LY294002 (LY, 30 μM) for 20 minutes (lane 4). Western blots showing phosphorylation of endogenous Akt as detected by P308 and P473 antibodies. Total Akt was detected using the anti-Akt antibody.

MDA-MB-231 cells = assay: apoptosis assay, sub-2N DNA by flow cytometry; assay type: cell-based; settings: co-expressed with PHLPP2
Protocol: Apoptosis assays were performed as described previously (Brognard et al., 2001). Briefly, cells were transfected with different PHLPP expression constructs or siRNAs. In the case of gating for transfected cells, a GFP expression construct was co-transfected into the cells. Approximately 24 hours post-transfection, the cells were switched to low serum medium (DMEM plus 0.1% FBS) and allowed to grow for an additional 48 hours. For LY294002 (25 μM) treatment, the drug was added at the time when the cells were switched into the low serum medium. The cells were collected and stained with propidium iodide (25 μg/ml). Apoptotic cells were defined as sub-2N DNA containing cells. Quantification of apoptosis was obtained using flow cytometry analysis with a Becton Dickinson FACSort.
Apoptotic assays were performed as described above. To determine G1/S ratios, cells were co-transfected with GFP and HA-PHLPP2 and incubated under high serum (10% FBS) conditions for 48 hrs and cells were gated based on GFP expression as described above. For BrdU incorporation assays, cells were transfected with 100 nM siRNA (si-1) and incubated for 48 hrs prior to performing assay following manufacturers protocol (Oncogene Research Products).

Row | Molecule | sensitivity of PHLPP-1α mediated dephosphorylation of Akt at Ser473 (PHLPP-1α) | rescue of the apoptosis induced by PHLPP2 (MDA-MB-231 cells)
1 | C=C1[C@@H](O)[C@@H]2O[C@]3(CC[C@H](/C=C/[C@@H](C)[C@@H]4CC(C)=C[C@@]5(O[C@H](C[C@@](C)(O)C(=O)O)CC[C@H]5O)O4)O3)CC[C@H]2O[C@@H]1[C@@H](O)C[C@H](C)[C@H]1O[C@@]2(CCCCO2)CC[C@H]1C [okadaic acid] | insensitive | 
2 | S473D: phosphomimetic and thus constitutively active Akt construct, resistant to dephosphorylation by PHLPP2 |  | two-thirds
